The values below are quoted from earlier work in patent US20050287214A1, “Squeeze controlled oral dosage form” (priority 2004, published 2005).

SMILES strings stand for the structures.

For the data set the following is noted: solubility of the active agent as stated in the formulation tables; no method given.

Consider `CNC(=C[N+](=O)[O-])NCCSCc1ccc(CN(C)C)o1` [Ranitidine], for which the solubility result is reported as “Ranitidine (solubility = 880 mg/ml)”.
